Results as given in patent US20140378541A1, “Synthetic Epigallocatechin Gallate (EGCG) Analogs” (WAYNE STATE UNIVERSITY, priority 2011, published 2014).

Columns and labels:
p21 protein = p21 protein level, Western blot, MDA-MB-231 cells; assay type: cell-based, human; conditions: 3 h
Experimental: (§1) (A) EGCG analogs 23 and 30 inhibited breast cancer cell proliferation. MDA-MB-231 cells were treated with indicated concentrations of 23, 30 or metformin for 24 h, followed by a MTT assay. *, P<0.1; **, P<0.01. Columns, mean of three experiments; bars, SD. (B) EGCG analogs 23 and 30 activated AMPK at a dose-dependent manner, measured by elevated level of phosphor-AMPKα and its downstream proteins of phosphor-Raptor. […] MDA-MB-231 cells were treated with indicated concentrations of 23 or 30 for 3 h, followed by Western blot analysis with the indicated antibodies. The numbers underneath the Western results of p-AMPKα indicated normalized phosphor-AMPKα/β-actin ratios. […]
(§2) The Western blot analysis was performed as follows: A whole cell extract was prepared from the treated cells as described previously (Landis-Piwowar et al., Cancer research, 2007, 67: 4303-4310; Chen et al., Cancer research, 2007, 67: 1636-1644; Chen et al., Biochemical pharmacology, 2005, 69: 1421-1432). The cell extracts (30 μg) were then separated by an SDS-PAGE gel and transferred to nitrocellulose membranes. […]

MDA-MB-231 cells [1] = test: Combination with docetaxel or erlotinib, Western blot (PARP cleavage, p-EGFR), MDA-MB-231 cells; assay type: cell-based, human; conditions: 24 h; for sensitization to docetaxel (apoptotic cell death, PARP cleavage): 20 μM plus 10 nM docetaxel; for sensitization to erlotinib (p-EGFR reduction, PARP cleavage): 20 μM plus 2.5 μM erlotinib
Experimental: (§3) In FIG. 9A, human breast cancer MDA-MB-231 cells were treated with 20 μM of EGCG, Pro-EGCG and EGCG analogs (compounds 5, 7, 23, 30 and 31), or 10 mM of metformin for 3 hrs. Cell lysates were analyzed by Western blot using antibodies of anti-AMPK, p-AMPK, PARP, p-EGFR, EGFR or β-actin. In FIG. 9B, human breast cancer MDA-MB-231 cells were treated with 20 μM of EGCG analogs 23 and 30, 10 nM of docetaxel alone, or combined treatment with compounds 23 and 30 plus docetaxel for 24 hrs. Cell lysates were analyzed by Western blot using antibodies of anti-AMPK, p-AMPK, PARP, p-EGFR, EGFR or β-actin. In FIG. 9C, cells were incubated in medium (0.1% BSA without FBS) containing 20 μM of 23, 30, 2.5 μM of Erlotinib (Eb) alone or the combinations as indicated for 24 hrs. Cell lyses were analyzed by Western blot using antibodies of anti-AMPK, p-AMPK, PARP, p-EGFR, EGFR or β-actin.
(§4) The Western blot analysis was performed as follows: A whole cell extract was prepared from the treated cells as described previously (Landis-Piwowar et al., Cancer research, 2007, 67: 4303-4310; Chen et al., Cancer research, 2007, 67: 1636-1644; Chen et al., Biochemical pharmacology, 2005, 69: 1421-1432). The cell extracts (30 μg) were then separated by an SDS-PAGE gel and transferred to nitrocellulose membranes. The membrances were blotted by specific antibodies including anti-AMPK, p-AMPK, EGFR, p-EGFR (Cell Signaling Tech. Danvers, Mass.), PARP (Enzo Life Sciences, Plymouth Meeting, Pa.), actin (Santa Cruz Biotechnology, Santa Cruz, Calif.). The membranes were visualized by enhanced chemiluminescence, as described previously (Landis-Piwowar et al., Cancer research, 2007, 67: 4303-4310; Chen et al., Cancer research, 2007, 67: 1636-1644; Chen et al., Biochemical pharmacology, 2005, 69: 1421-1432).
(§5) In FIG. 9A, human breast cancer MDA-MB-231 cells were treated with 20 μM of EGCG, Pro-EGCG and other EGCG analogs (compounds 5, 7, 23, 30 and 31), or 10 mM of metformin for 3 hrs. Cell lysates were analyzed by Western blot using antibodies of anti-AMPK, p-AMPK, PARP, p-EGFR, EGFR or β-actin. In FIG. 9B, human breast cancer MDA-MB-231 cells were treated with 20 μM of EGCG analogs 23 and 30, 10 nM of docetaxel alone, or combined treatment with compounds 23 and 30 plus docetaxel for 24 hrs.

MDA-MB-231 cells [2] = test: Mammosphere formation assay; assay type: cell-based; conditions: Homo sapiens, MDA-MB-231, 168 h, 7 days
Experimental: MDA-MB-231 cells were seeded in low attached 6-well plates (1000 cells/well) and treated with indicated concentrations of 23 and 30 for 7 days, followed by calculating numbers of mammosphere (A) and taking photos of mammosphere morphology (B). Metformin and EGCG were served as control. *, P<0.1; **, P<0.01. Columns, mean of three experiments; bars, SD.
Mammosphere formation assay was performed to assess the capacity of cancer stem cell self-renewal. Single cell suspensions of MDA-MB-231 cells were thoroughly suspended and plated on ultra low adherent wells of 6-well plates (Corning, Lowell, Mass.) at 1000 cells/well in 1.5 ml of sphere formation medium (1:1 DMEM/F12 medium supplemented with 50 units/ml penicillin, […] streptomycin, B-27 and N-2). One milliliter of sphere formation medium was added every 3-4 days. After 7 days of incubation with different concentrations of EGCG analogs 23, 30 or metformin, the formed spheres were collected by centrifugation at 300 g for 5 min and counted with an inverted phase-contrast Zeiss Axiovert 25 microscope.

[3] = system: mTOR pathway (phosphor-p70-S6K); test: mTOR pathway, phosphor-p70-S6K Western blot, MDA-MB-231 cells; assay type: cell-based, human; conditions: 3 h
Experimental: as §1, §2

AMPK signaling = test: AMPK activation, Western blot, MDA-MB-231 cells; assay type: cell-based, human; conditions: 3 h; for AMPK activation (p-AMPK): 20 μM, metformin 10 mM as comparison; for AMPK activation (phosphor-AMPKα, phosphor-Raptor), dose dependence: indicated concentrations
Experimental: as §3, §1
A whole cell extract was prepared from the treated cells as described by Landis-Piwowar et al. Cancer Res. (2007) 67, 4303, Chen et al. Cancer Res. (2007) 67, 1636, and Chen et al. Biochem. Pharm. (2005) 69, 1421. Cell extracts (30 μg) were separated by an SDS-PAGE gel and transferred to nitrocellulose membranes. The membrances were blotted by specific antibodies including anti-AMPK, p-AMPK, EGFR, p-EGFR (Cell Signaling Tech., Danvers, Mass.), PARP (Enzo Life Sciences, Plymouth Meeting, Pa.), actin (Santa Cruz Biotechnology, Santa Cruz, Calif.). The membranes were visualized by enhanced chemiluminescence, as described previously by Landis-Piwowar et al. Cancer Res. (2007) 67, 4303, Chen et al. Cancer Res. (2007) 67, 1636, and Chen et al. Biochem. Pharm. (2005) 69, 1421.
as §4, §5

Row | Structure (SMILES) | p21 protein level (p21 protein) | sensitization to docetaxel (apoptotic cell death, PARP cleavage) (MDA-MB-231 cells [1]) | sensitization to erlotinib (p-EGFR reduction, PARP cleavage) (MDA-MB-231 cells [1]) | inhibition at 10 µM (MDA-MB-231 cells [2]) [%] | inhibition at 20 µM (MDA-MB-231 cells [2]) [%] | phosphor-p70-S6K level [3] | AMPK activation (p-AMPK) (AMPK signaling) | AMPK activation (phosphor-AMPKα, phosphor-Raptor), dose dependence (AMPK signaling)
1 | O=C(O[C@H]1Cc2ccccc2C[C@H]1OC(=O)c1cc(O)c(Br)c(O)c1)c1cc(O)c(Br)c(O)c1 [Compound 23] | increased levels of p21 protein | sensitize these TNBC cells to Docetaxel | sensitize these TNBC cells to the EGFR inhibitor Erlotinib | 45.1 | 66.7 | decreased phosphor-p70-S6K | more potent AMPK activators even at lower concentration than metformin | activated AMPK in a dose-dependent manner
2 | Nc1ccc(C(=O)O[C@H]2Cc3ccccc3C[C@H]2OC(=O)c2ccc(N)cc2)cc1 [Compound 30] | increased levels of p21 protein | sensitize these TNBC cells to Docetaxel | sensitize these TNBC cells to the EGFR inhibitor Erlotinib | 52.2 | 73.3 | decreased phosphor-p70-S6K | more potent AMPK activators even at lower concentration than metformin | activated AMPK in a dose-dependent manner
3 | O=C(O[C@@H]1Cc2c(O)cc(O)cc2O[C@@H]1c1cc(O)c(O)c(O)c1)c1cc(O)c(O)c(O)c1 [Compound 1, (−)-Epigallocatechin gallate, reference compound] |  |  |  | 20.1 | 51.3 |  | can activate AMPK signaling | 
